Paper PMC9743090, “Induction of Ferroptosis in Glioblastoma and Ovarian Cancers by a New Pyrrole Tubulin Assembly Inhibitor” (Journal of Medicinal Chemistry, 2022)

system: MCF-7 human breast carcinoma cells; assay: Inhibition of the growth of MCF-7 human breast carcinoma cells; assay type: cell-based; settings: Homo sapiens, MCF7; inhibition of cell growth; cells grown for 96 h; read-out: MCF-7 IC50 ± SD
Description: The methodology for the evaluation of the growth of human MCF-7 breast carcinoma cells was previously described, except that cells were grown for 96 h for IC50 determinations.[66] U-87 MG and OVCAR-3 proliferation assays were performed plating 10^4 cells/cm^2 in a Multiwell 24. The day after, cells were treated with compound 15, and DMSO was used as a control. Cells were counted 48 h later with a Bürker counting chamber, after dilution in TrypanBlue (#T6146 Sigma-Aldrich).

IC50 | SMILES
1100 ± 300 nM | COc1cc(C(=O)c2ccn(-c3ccccn3)c2)cc(OC)c1OC [Compound 2, (1-(Pyridin-2-yl)-1H-pyrrol-3-yl)(3,4,5-trimethoxyphenyl)methanone]
2500 ± 70 nM | COc1cc(C(=O)c2ccn(-c3cccnc3)c2)cc(OC)c1OC [Compound 3, (1-(Pyridin-3-yl)-1H-pyrrol-3-yl)(3,4,5-trimethoxyphenyl)methanone]
2500 ± 70 nM | COc1cc(C(=O)c2ccn(-c3ccncc3)c2)cc(OC)c1OC [Compound 4, (1-(Pyridin-4-yl)-1H-pyrrol-3-yl)(3,4,5-trimethoxyphenyl)methanone]
220 nM | COc1cc(C(=O)c2ccn(-c3ncccn3)c2)cc(OC)c1OC [Compound 5, (1-(Pyrimidin-2-yl)-1H-pyrrol-3-yl)(3,4,5-trimethoxyphenyl)methanone]
18 ± 2 nM | COc1cc(C(=O)c2cn(-c3ccccn3)cc2-c2ccccc2)cc(OC)c1OC [Compound 6, (4-Phenyl-1-(pyridin-2-yl)-1H-pyrrol-3-yl)(3,4,5-trimethoxyphenyl)methanone]
50 ± 10 nM | COc1cc(C(=O)c2cn(-c3cccnc3)cc2-c2ccccc2)cc(OC)c1OC [Compound 7, (4-Phenyl-1-(pyridin-3-yl)-1H-pyrrol-3-yl)(3,4,5-trimethoxyphenyl)methanone]
18 ± 4 nM | COc1cc(C(=O)c2cn(-c3ccccn3)cc2-c2ccco2)cc(OC)c1OC [Compound 9, (4-(Furan-2-yl)-1-(pyridin-2-yl)-1H-pyrrol-3-yl)(3,4,5-trimethoxyphenyl)methanone]
39 ± 2 nM | COc1cc(C(=O)c2cn(-c3cccnc3)cc2-c2ccco2)cc(OC)c1OC [Compound 10, (4-(Furan-2-yl)-1-(pyridin-3-yl)-1H-pyrrol-3-yl)(3,4,5-trimethoxyphenyl)methanone]

system: tubulin; assay: Inhibition of tubulin polymerization (assembly assay); assay type: biochemical; settings: tubulin at 10 μM, read-out: Tubulin IC50 ± SD
Description: (§1) The assembly reaction mixtures contained 0.8 M monosodium glutamate (pH 6.6 with HCl in a 2 M stock solution), 10 μM tubulin, 4% (v/v) DMSO, and varying concentrations of the drug. Following a 15 min preincubation at 30 °C, samples were chilled on ice, GTP to 0.4 mM was added, and turbidity development was followed at 350 nm in a temperature-controlled recording spectrophotometer for 20 min at 30 °C. The extent of reaction was measured. Full experimental details were previously described.[63] For the colchicine binding assay, reaction mixtures contained 1.0 μM tubulin, 5.0 μM [^3H]colchicine, and 5.0 or 1.0 μM inhibitor and were incubated for 10 min at 37 °C. Complete details were described previously.[64]

IC50 | SMILES
480 ± 100 nM | COc1cc(C(=O)c2ccn(-c3ccccn3)c2)cc(OC)c1OC [Compound 2, (1-(Pyridin-2-yl)-1H-pyrrol-3-yl)(3,4,5-trimethoxyphenyl)methanone]
1200 ± 100 nM | COc1cc(C(=O)c2ccn(-c3cccnc3)c2)cc(OC)c1OC [Compound 3, (1-(Pyridin-3-yl)-1H-pyrrol-3-yl)(3,4,5-trimethoxyphenyl)methanone]
> 20000 nM | COc1cc(C(=O)c2ccn(-c3ccncc3)c2)cc(OC)c1OC [Compound 4, (1-(Pyridin-4-yl)-1H-pyrrol-3-yl)(3,4,5-trimethoxyphenyl)methanone]
490 ± 10 nM | COc1cc(C(=O)c2ccn(-c3ncccn3)c2)cc(OC)c1OC [Compound 5, (1-(Pyrimidin-2-yl)-1H-pyrrol-3-yl)(3,4,5-trimethoxyphenyl)methanone]
430 ± 1 nM | COc1cc(C(=O)c2cn(-c3ccccn3)cc2-c2ccccc2)cc(OC)c1OC [Compound 6, (4-Phenyl-1-(pyridin-2-yl)-1H-pyrrol-3-yl)(3,4,5-trimethoxyphenyl)methanone]
740 ± 10 nM | COc1cc(C(=O)c2cn(-c3cccnc3)cc2-c2ccccc2)cc(OC)c1OC [Compound 7, (4-Phenyl-1-(pyridin-3-yl)-1H-pyrrol-3-yl)(3,4,5-trimethoxyphenyl)methanone]
740 nM | COc1cc(C(=O)c2cn(-c3ccccn3)cc2-c2ccco2)cc(OC)c1OC [Compound 9, (4-(Furan-2-yl)-1-(pyridin-2-yl)-1H-pyrrol-3-yl)(3,4,5-trimethoxyphenyl)methanone]
1100 ± 20 nM | COc1cc(C(=O)c2cn(-c3cccnc3)cc2-c2ccco2)cc(OC)c1OC [Compound 10, (4-(Furan-2-yl)-1-(pyridin-3-yl)-1H-pyrrol-3-yl)(3,4,5-trimethoxyphenyl)methanone]

system: not given; assay: not given; settings: not given

melting point | SMILES
120 to 125 °C | COc1cc(C(=O)c2ccn(-c3ccccn3)c2)cc(OC)c1OC [Compound 2, (1-(Pyridin-2-yl)-1H-pyrrol-3-yl)(3,4,5-trimethoxyphenyl)methanone]
150 to 152 °C | COc1cc(C(=O)c2cn(-c3ccccn3)cc2-c2ccccc2)cc(OC)c1OC [Compound 6, (4-Phenyl-1-(pyridin-2-yl)-1H-pyrrol-3-yl)(3,4,5-trimethoxyphenyl)methanone]
171 to 173 °C | COc1cc(C(=O)c2cn(-c3cccnc3)cc2-c2ccccc2)cc(OC)c1OC [Compound 7, (4-Phenyl-1-(pyridin-3-yl)-1H-pyrrol-3-yl)(3,4,5-trimethoxyphenyl)methanone]

system: tubulin; assay: Inhibition of [3H]colchicine binding to tubulin; settings: inhibitor at 1:5:1 μM, 1 µM
Description: as §1

Inhibition of [3H]colchicine binding 1:5:1 | SMILES
69% | COc1cc(C(=O)c2cn(-c3ccccn3)cc2-c2ccco2)cc(OC)c1OC [Compound 9, (4-(Furan-2-yl)-1-(pyridin-2-yl)-1H-pyrrol-3-yl)(3,4,5-trimethoxyphenyl)methanone]

same assay, conditions: inhibitor at 1:5:5 μM

Inhib. colch. binding 1-5-5 (% ± SD) | SMILES
83 ± 0.4% | COc1cc(C(=O)c2ccn(-c3ccccn3)c2)cc(OC)c1OC [Compound 2, (1-(Pyridin-2-yl)-1H-pyrrol-3-yl)(3,4,5-trimethoxyphenyl)methanone]
38 ± 3% | COc1cc(C(=O)c2ccn(-c3cccnc3)c2)cc(OC)c1OC [Compound 3, (1-(Pyridin-3-yl)-1H-pyrrol-3-yl)(3,4,5-trimethoxyphenyl)methanone]
1.4 ± 5% | COc1cc(C(=O)c2ccn(-c3ccncc3)c2)cc(OC)c1OC [Compound 4, (1-(Pyridin-4-yl)-1H-pyrrol-3-yl)(3,4,5-trimethoxyphenyl)methanone]
82 ± 1% | COc1cc(C(=O)c2ccn(-c3ncccn3)c2)cc(OC)c1OC [Compound 5, (1-(Pyrimidin-2-yl)-1H-pyrrol-3-yl)(3,4,5-trimethoxyphenyl)methanone]
92 ± 0.5% | COc1cc(C(=O)c2cn(-c3ccccn3)cc2-c2ccccc2)cc(OC)c1OC [Compound 6, (4-Phenyl-1-(pyridin-2-yl)-1H-pyrrol-3-yl)(3,4,5-trimethoxyphenyl)methanone]
52 ± 5% | COc1cc(C(=O)c2cn(-c3cccnc3)cc2-c2ccccc2)cc(OC)c1OC [Compound 7, (4-Phenyl-1-(pyridin-3-yl)-1H-pyrrol-3-yl)(3,4,5-trimethoxyphenyl)methanone]
95 ± 0.9% | COc1cc(C(=O)c2cn(-c3ccccn3)cc2-c2ccco2)cc(OC)c1OC [Compound 9, (4-(Furan-2-yl)-1-(pyridin-2-yl)-1H-pyrrol-3-yl)(3,4,5-trimethoxyphenyl)methanone]
77 ± 0.1% | COc1cc(C(=O)c2cn(-c3cccnc3)cc2-c2ccco2)cc(OC)c1OC [Compound 10, (4-(Furan-2-yl)-1-(pyridin-3-yl)-1H-pyrrol-3-yl)(3,4,5-trimethoxyphenyl)methanone]
